Data: patent US9303009B2, “Migrastatins and uses thereof” (Sloan-Kettering Institute for Cancer Research, priority 2011, dated 2016)

Tested on: MDA231BrM2a cells
Test: cancer cell extravasation through the blood-brain barrier after intracardiac injection
Assay type: in vivo, mice
Settings: 20 mg/kg intraperitoneally at days 0, 3 and 5; sacrificed 7 days after inoculation
Experimental: MDA231BrM2a is a human breast cancer cell line that is metastatic to the brain (Bos et al 2009). These cells stably express a triple fusion protein (thymidinekinase-GFP-luciferase) that allows detection by bioluminesce, and by immunofluorescence with anti-GFP antibodies. Cells (5×10^5 cells) were inoculated into the bloodstream of immunodeficient mice by intracardiac injection. Carboxymethyl-Migraether (cME) was administered (20 mg/kg, intraperitoneally) at days 0, 3 and 5 after injection. Mice were sacrificed 7 days after inoculation. Brains from these mice were serially sectioned (80 μm sections). Anti-GFP immunofluorescence was performed and the number of GFP(+) cells (events) per brain quantified (FIG. 1). The results establish that extravasation of these cancer cells through the blood-brain barrier (BBB) occurs during the first 7 days after inoculation. Therefore, in the experiment of FIG. 1, cME targets cells during the extravasation step.

CO[C@H]1/C=C/CCCCCOC/C(C)=C\[C@@H](C)[C@@H]1OCC(=O)O [CME, Carboxymethyl migraether]
reduction in the number of events (GFP(+) cells) per brain: two-fold reduction
